This note sets out measurements from patent EP0350742A1, “6-Merkaptopurines derivatives, their preparation and their use against retrovirus infections” (HOECHST AKTIENGESELLSCHAFT, priority 1988, dated 1990).

The subject of data set [1] is Friend-Leukämie-Virus. Nature of the data set: Friend leukaemia virus (FLV) infection in the mouse, i.p. application (Tabelle I). The format is in vivo, Maus. The note with it: for rel. Milzgewicht: NMRI mice, treatment over 10 days starting 48 h after infection, spleen weighed day 14; for n* Anzahl überlebende Mäuse: groups of 10 mice. From the text: (§1) Blockierung der Reverse Transkriptase-(RT)-Aktivität untersucht wird, erscheint die Wahl eines solchen Ersatzmodelles gerechtfertigt. Im vorliegenden Fall wurde die Infektion der Maus mit dem Friend-Leukämie-Virus gewählt. Dazu wurden normale Labormäuse (NMRI = Naval Medical Research Institute) durch intravenöse Injektion mit Friend-Virus enthaltendem Mäuseserum infiziert. Bei den unbehandelten Kontrolltieren entwickelte sich als Symptom der Infektion innerhalb von 2 Wochen eine deutliche Vergrößerung von Milz und Leber. Die Behandlung erfolgte über 10 Tage, beginnend 48 Stunden nach der Infektion. Am 14. Versuchstag wurden die Tiere durch Luxation der Halswirbel getötet und geöffnet. Die Milz wurde entnommen und gewogen. Als Meßparameter der therapeutischen Wirksamkeit wurde das Milzgewicht der behandelten Tiere mit dem der unbehandelten Infektionskontrolle in Relation gesetzt.
Während bei uninfizierten ausgewachsenen Labormäusen (20 - 24 g Körpergewicht) die Milz etwa 1 % des Körpergewichtes oder weniger wog, erreichte bei infizierten Tieren die Milz am Ende des Versuchs etwa 10 % des Körpergewichts.
Tabelle I zeigt die Ergebnisse der Wirksamkeitstests bei der Friend-Leukämie-Virusinfektion in der Maus bei intraperitonealer Verabreichung der erfindungsgemäßen Verbindungen. Als Kontrolle diente eine Gruppe von Mäusen, die unbehandelt blieben.
Zum Vergleich wurde eine weitere Gruppe von Mäusen mit Suramin behandelt. Tabelle I verdeutlicht, daß die erfindungsgemäßen Verbindungen besser wirken als Suramin, bei vergleichbarer oder geringerer Beeinträchtigung des Hämaglobingehaltes des Blutes. Bei Verabreichung der erfindungsgemäßen Verbindungen überlebten alle Mäuse die Behandlung, wohingegen bei der Verabreichung von Suramin 3 von 10 Mäusen starben. Weiterhin war der Behandlungserfolg, erkennbar an der Verringerung der Milzschwellung, bei Verabreichung aller getesteten Verbindungen größer als bei der Verabreichung von Suramin.

Data set [2] relates to Friend-Leukämie-Virus. Nature of the data set: Friend leukaemia virus (FLV) infection in the mouse, oral application via drinking water (Tabelle II). The note with it: for n* Anzahl überlebende Mäuse / Hg: oral; for Hg: haemoglobin content of blood. In kind it is in vivo, Maus.
Text: as §1, with “Bei den unbehandelten Kontrolltieren entwickelte sich als Symptom der Infektion innerhalb von 2 Wochen eine deutliche Vergrößerung von Milz und Leber.” left out

Data set [3] can be described thus: Qualitative solubility noted in the preparation examples. The format is physicochemical.
Where [4] appears, read: 0.05 mg/ml in drinking water, oral (10 x 0.17-0.18 mg/Maus).
Where [5] appears, read: 0.10 mg/ml in drinking water, oral (10 x 0.33-0.36 mg/Maus).
[6] abbreviates: 0.50 mg/ml in drinking water, oral (10 x 1.67-1.77 mg/Maus).

With `Cc1ccc(C(=O)Nc2ccc(S(=O)(=O)O)c3cc(S(=O)(=O)O)cc(S(=O)(=O)O)c23)cc1NC(=O)c1cccc(NC(=O)Nc2cccc(C(=O)Nc3cc(C(=O)Nc4ccc(S(=O)(=O)O)c5cc(S(=O)(=O)O)cc(S(=O)(=O)O)c45)ccc3C)c2)c1` [Suramin, reference compound], the “rel. Milzgewicht” value in the data set with Friend-Leukämie-Virus [1] (10 x 1.0 mg/Maus i.p.) is reported as 4.54 ± 1.86 % Körpergewicht; with Friend-Leukämie-Virus [2] (10 x 1.00 mg/Maus i.p., comparison group within the Tabelle II experiment) it was 4.50 ± 2.22 % Körpergwicht. The molecule also displayed a Mäuse starben in the data set on Friend-Leukämie-Virus [1] (in vivo, ip) of 3.

Consider `c1cncc(CSc2ncnc3[nH]cnc23)c1` [Präparat 2, 6-(3-Pyridylmethyl)-mercaptopurin], for which the “rel. Milzgewicht” value in the data set with Friend-Leukämie-Virus [1] (10 x 0.1 mg/Maus i.p.) worked out at 5.46 ± 3.32 % Körpergewicht; in the data set with Friend-Leukämie-Virus [1] (10 x 1.0 mg/Maus i.p.) it was 1.84 ± 0.82 % Körpergewicht; with Friend-Leukämie-Virus [2] (setting [4]) it was 5.76 ± 2.72 % Körpergewicht; in the data set on Friend-Leukämie-Virus [2] (setting [5]), 1.46 ± 1.00 % Körpergewicht; in the data set on Friend-Leukämie-Virus [2] (setting [6]), 0.90 ±1.12 % Körpergewicht.

As for `Cc1cn([C@H]2C[C@H](N=[N+]=[N-])[C@@H](CO)O2)c(=O)[nH]c1=O` [AZT, Azidothymidin, reference compound], in the data set with Friend-Leukämie-Virus [2] (0.05 mg/ml in drinking water), the “n* Anzahl überlebende Mäuse” value was 10 and the Hg stood at 14.1 g/%. Also, in the data set on Friend-Leukämie-Virus [2] (0.10 mg/ml in drinking water), the “n* Anzahl überlebende Mäuse” value is listed as 10 and the Hg is 12.7 g/%.

For `c1cc(CSc2ncnc3[nH]cnc23)ccn1` [Präparat 1, 6-(4-pyridylmethyl)-mercaptopurin], the “rel. Milzgewicht” value in the data set on Friend-Leukämie-Virus [1] (10 x 0.1 mg/Maus i.p.) was 5.23 ± 2.69 % Körpergewicht; in the data set on Friend-Leukämie-Virus [1] (10 x 1.0 mg/Maus i.p.) it was 2.08 ± 0.44 % Körpergewicht; in the data set on Friend-Leukämie-Virus [2] (setting [4]), 7.01 ± 2.99 % Körpergewicht; in the data set with Friend-Leukämie-Virus [2] (setting [5]), 4.80 ± 2.74 % Körpergewicht; with Friend-Leukämie-Virus [2] (setting [6]) it was 1.66 ± 1.25 % Körpergewicht. Also, the “n* Anzahl überlebende Mäuse” value with Friend-Leukämie-Virus [1] (10 x 0.1 mg/Maus i.p.), in the data set on Friend-Leukämie-Virus [1] (10 x 1.0 mg/Maus i.p.), with Friend-Leukämie-Virus [2] (0.05 mg/ml in drinking water), in the data set with Friend-Leukämie-Virus [2] (0.10 mg/ml in drinking water) and in the data set on Friend-Leukämie-Virus [2] (0.50 mg/ml in drinking water) was 10 in each case. Further, the Hg in the data set with Friend-Leukämie-Virus [1] (10 x 1.0 mg/Maus i.p., haemoglobin content of blood) stood at 13.2 g/ %; in the data set with Friend-Leukämie-Virus [2] (0.50 mg/ml in drinking water), 11.3 g/%. Moreover, the “Löslichkeit in Wasser” value in data set [3] (free base) is recorded as “unlöslich”. The “Löslichkeit in allen säurehaltigen Flüssigkeiten” value in data set [3] (free base) was “gut löslich”.

On to `C=CCSc1ncnc2[nH]cnc12` [Präparat 3, 6-(2-propenyl)-mercaptopurin], for which the “rel. Milzgewicht” value was 5.86 ± 1.84 % Körpergewicht with Friend-Leukämie-Virus [1] (10 x 0.1 mg/Maus i.p.), 1.37 ± 0.38 % Körpergewicht in the data set on Friend-Leukämie-Virus [1] (10 x 1.0 mg/Maus i.p.), 4.52 ± 2.28 % Körpergewicht in the data set on Friend-Leukämie-Virus [2] (setting [4]) and 1.51 ± 1.26 % Körpergewicht with Friend-Leukämie-Virus [2] (setting [5]). Further, the “Löslichkeit in Alkohol, heißem Wasser und Polyethylenglykol” value in data set [3] is on record as “leicht löslich”. Further, the “Löslichkeit in kaltem Wasser” value in data set [3] is listed as “Schwer löslich”.
